For assay [1], the target named is T1, AR (L702H) in LNCaP cells (Homo sapiens, UniProt P10275, L702H/T878A).
T1 construct: engineered to introduce the mutation L702H into the AR gene using CRISPR/Cas9; endogenous in cells; host or cells: LNCaP cells edited by CRISPR/Cas9 at the AR gene
Description: LNCaP Androgen Receptor L702H Imaging Assay (LNCaP cells engineered by CRISPR/Cas9). Type of assay: cell-based. Particulars: LNCaP cells with AR L702H mutation, 24 h incubation; for DC50: concentration giving 50% of maximum degradation of AR (L702H) per curve fit; for Dmax: LNCaP, maximum degradation observed, normalized as % of positive control. A digest of the protocol: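 AR (L702H) degradation, expressed as DC50 and Dmax from curve fits normalized to a positive degrader control, was measured by high-content imaging of anti-AR immunofluorescence. The engineered LNCaP line was dosed over 12 concentrations for 24 h, 0.3% DMSO final, before PFA fixation.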

In assay [2] the target is T2, AR (AR-full length) in LNCaP cells (Homo sapiens, UniProt P10275, T878A).
T2 construct: the prostate cancer cell line LNCaP (expressing AR-full length); endogenous in cells; host or cells: LNCaP
T2 sequence (P10275 whole entry T878A): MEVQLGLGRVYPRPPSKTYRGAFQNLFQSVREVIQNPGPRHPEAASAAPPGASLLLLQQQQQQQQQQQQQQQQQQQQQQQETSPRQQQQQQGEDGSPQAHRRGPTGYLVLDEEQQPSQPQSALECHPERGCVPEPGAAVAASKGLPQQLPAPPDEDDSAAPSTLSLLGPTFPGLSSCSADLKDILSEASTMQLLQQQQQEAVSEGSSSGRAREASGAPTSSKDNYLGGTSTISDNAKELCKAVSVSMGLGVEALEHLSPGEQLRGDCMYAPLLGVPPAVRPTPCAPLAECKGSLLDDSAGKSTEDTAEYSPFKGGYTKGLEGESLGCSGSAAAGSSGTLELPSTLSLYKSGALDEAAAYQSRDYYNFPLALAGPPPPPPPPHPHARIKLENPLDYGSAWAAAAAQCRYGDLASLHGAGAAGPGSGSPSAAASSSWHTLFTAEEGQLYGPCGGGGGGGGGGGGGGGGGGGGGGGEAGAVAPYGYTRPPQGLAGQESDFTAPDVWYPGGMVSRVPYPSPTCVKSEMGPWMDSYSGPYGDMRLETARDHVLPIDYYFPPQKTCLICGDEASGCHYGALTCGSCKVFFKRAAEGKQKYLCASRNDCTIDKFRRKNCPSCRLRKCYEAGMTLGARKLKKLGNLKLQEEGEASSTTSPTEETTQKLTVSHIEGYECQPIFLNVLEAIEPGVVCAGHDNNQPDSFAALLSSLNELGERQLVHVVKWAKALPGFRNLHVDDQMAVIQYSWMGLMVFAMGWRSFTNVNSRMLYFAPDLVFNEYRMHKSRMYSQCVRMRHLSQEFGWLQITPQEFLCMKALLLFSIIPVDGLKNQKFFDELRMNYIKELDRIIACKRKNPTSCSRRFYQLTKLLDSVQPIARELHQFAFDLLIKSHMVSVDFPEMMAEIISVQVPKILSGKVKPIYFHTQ
T2 sequence (Q96SW2 whole entry partner): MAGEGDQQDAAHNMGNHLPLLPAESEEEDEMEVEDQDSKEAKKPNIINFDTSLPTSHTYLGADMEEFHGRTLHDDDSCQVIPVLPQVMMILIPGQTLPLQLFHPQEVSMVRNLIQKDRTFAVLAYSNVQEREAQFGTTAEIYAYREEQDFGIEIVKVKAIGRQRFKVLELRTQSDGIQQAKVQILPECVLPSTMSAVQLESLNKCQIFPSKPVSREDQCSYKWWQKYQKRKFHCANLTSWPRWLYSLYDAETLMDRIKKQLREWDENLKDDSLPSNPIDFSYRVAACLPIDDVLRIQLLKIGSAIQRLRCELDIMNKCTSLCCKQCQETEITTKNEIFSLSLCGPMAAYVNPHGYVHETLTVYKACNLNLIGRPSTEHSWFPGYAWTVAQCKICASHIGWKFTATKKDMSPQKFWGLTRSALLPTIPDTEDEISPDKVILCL
Description: LNCaP Androgen Receptor Imaging Assay (immunofluorescence of endogenous nuclear AR). Conditions: 24 h incubation; for DC50: concentration giving 50% of maximum degradation of AR per curve fit, single experiment or average of two or more; for Dmax: LNCaP, maximum degradation observed, normalized as % of positive control (prior art AR PROTAC at 3 μM). The class given is cell-based. In short, it runs like this:
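Endogenous nuclear AR level was imaged by immunofluorescence after 24 h compound exposure (12-point dose response, 0.3% DMSO, 37° C./5% CO2) in LNCaP cells. Data were expressed as % of a 3 μM prior-art AR PROTAC control and fitted (bell fit where a hook appeared) to give DC50 and maximum degradation Dmax.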

T1 sequence (P10275 whole entry L702H/T878A): as the sequence (P10275 whole entry T878A) above, with L702H counted along it
T1 sequence (Q96SW2 whole entry partner): as the sequence (Q96SW2 whole entry partner) above

Consider `N#Cc1c[nH]c2c(N3CCC(c4ccc(N5CCC(CN6CCC(n7ccc8c(N9CCC(=O)NC9=O)cccc87)CC6)CC5)nn4)CC3)ccc(Cl)c12` [Example 63, 4-Chloro-7-(4-{6-[4-({4-[4-(2,4-dioxo-1,3-diazinan-1-yl)-1H-indol-1-yl]piperidin-1-yl}methyl)piperidin-1-yl]pyridazin-3-yl}piperidin-1-yl)-1H-indole-3-carbonitrile], for which the 50% degradation concentration (DC50) in assay [1] is 16 nM; in assay [2], 6 nM. Also, the Dmax in assay [1] turned out to be 63%; in assay [2], 94%.
In the same order, the values of `N#Cc1c[nH]c2c(N3CCC(NC(=O)c4ccc(N5CCC(CN6CCN(c7ccc8c(c7)CN(C7CCC(=O)NC7=O)C8=O)CC6)CC5)cc4F)CC3)ccc(Cl)c12` (stereo not shown) [Example 159, N-[1-(4-Chloro-3-cyano-1H-indol-7-yl)piperidin-4-yl]-4-[4-({4-[2-(2,6-dioxopiperidin-3-yl)-1-oxo-2,3-dihydro-1H-isoindol-5-yl]piperazin-1-yl}methyl)piperidin-1-yl]-2-fluorobenzamide] are 3 nM, 2 nM, 106% and 101%.
For `Cc1cc(C(=O)NC2CCN(c3ccc(Cl)c4c(C#N)c[nH]c34)CC2)ccc1N1CCC(CN2CCC(n3ccc4c(N5CCC(=O)NC5=O)cccc43)CC2)CC1` [Example 164, N-[1-(4-Chloro-3-cyano-1H-indol-7-yl)piperidin-4-yl]-4-[4-({4-[4-(2,4-dioxo-1,3-diazinan-1-yl)-1H-indol-1-yl]piperidin-1-yl}methyl)piperidin-1-yl]-3-methylbenzamide], in assay [1], the half-maximal degradation concentration (DC50) worked out at 2 nM and the Dmax stood at 114%. For the same compound, in assay [2], the half-maximal degradation concentration (DC50) is 2 nM and the Dmax amounted to 108%.
Turning to `N#Cc1n[nH]c2c(N3CCC[C@H](c4ccc(N5CCC(CN6CCC(n7ccc8c(N9CCC(=O)NC9=O)cccc87)CC6)CC5)cc4)C3)ccc(Cl)c12` [Example 25, 4-Chloro-7-[(3R)-3-{4-[4-({4-[4-(2,4-dioxo-1,3-diazinan-1-yl)-1H-indol-1-yl]piperidin-1-yl}methyl)piperidin-1-yl]phenyl}piperidin-1-yl]-1H-indazole-3-carbonitrile], in assay [1], the 50% degradation concentration (DC50) is 4 nM and the Dmax was 104%. In assay [2], the half-maximal degradation concentration (DC50) came out at 6 nM and the Dmax was determined as 92%.
In the same order, the values of `COc1nc(N2CCN(CC3CCN(c4ccc(C5CCN(c6ccc(Cl)c7c(C#N)n[nH]c67)CC5)cc4)CC3)CC2)cc2c1C(=O)N(C1CCC(=O)NC1=O)C2` (stereo not shown) [Example 143, 4-Chloro-7-(4-{4-[4-({4-[2-(2,6-dioxopiperidin-3-yl)-4-methoxy-3-oxo-2,3-dihydro-1H-pyrrolo[3,4-c]pyridin-6-yl]piperazin-1-yl}methyl)piperidin-1-yl]phenyl}piperidin-1-yl)-1H-indazole-3-carbonitrile] are 67 nM, 104%, 37 nM and 101%.
Take `COc1nc(N2CCN(CCCC3CCN(c4ccc(C5CCN(c6ccc(Cl)c7c(C#N)c[nH]c67)CC5)cc4)CC3)CC2)cc2c1C(=O)N(C1CCC(=O)NC1=O)C2` (stereo not shown) [Example 88, 4-Chloro-7-(4-{4-[4-(3-{4-[2-(2,6-dioxopiperidin-3-yl)-4-methoxy-3-oxo-2,3-dihydro-1H-pyrrolo[3,4-c]pyridin-6-yl]piperazin-1-yl}propyl)piperidin-1-yl]phenyl}piperidin-1-yl)-1H-indole-3-carbonitrile]: in assay [1], the half-maximal degradation concentration (DC50) turned out to be 21 nM and the Dmax turned out to be 99%. Also, in assay [2], the DC50 came out at 13 nM and the Dmax was 96%.
In the same order, the values of `N#Cc1c[nH]c2c(N3CCC(c4ccc(N5CCC(CN6CCC(n7ccc8c(N9CCC(=O)NC9=O)cccc87)CC6)CC5)nc4)CC3)ccc(Cl)c12` [Example 108, 4-Chloro-7-(4-{6-[4-({4-[4-(2,4-dioxo-1,3-diazinan-1-yl)-1H-indol-1-yl]piperidin-1-yl}methyl)piperidin-1-yl]pyridin-3-yl}piperidin-1-yl)-1H-indole-3-carbonitrile] are 34 nM, 102%, 7 nM and 104%.

For orientation: DC50 means the concentration giving 50% degradation. The term Dmax denotes the greatest extent of degradation seen.

The values above are taken from patent US20260274832A1, “COMPOUNDS AND THEIR USE IN TREATING CANCER” (ASTRAZENECA AB, priority 2023, published 2026).
